Experimental data: patent publication US10519177B2, “Heterocyclic compounds and uses thereof” (Plexxikon Inc., priority 2013, dated 2019)

Tests used:
[1] = test system: MV-4-11 cells; experiment: Oncology cell growth assay MV-4-11 (CellTiter Glo); format: cell-based; conditions: Homo sapiens, MV4-11, 72 h; MV-4-11, 3d growth; read-out: Cell activity (IC50 μM) MV-4-11 3d-Growth
Method in brief: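 Growth read by CellTiter Glo luminescence after 72 h compound treatment of MLL-AF4-bearing MV-4-11 cells (3000/well). Titration: 8 points, 1:3 steps, maximum 10 μM, 0.2% DMSO final. Data normalized to DMSO wells, four-parameter fit gives pIC50.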

[2] = test system: bromodomain; experiment: at least one of the bromodomain cell assays of Example 57; format: cell-based; conditions: at least one of the bromodomain cell assays described in Example 57; read-out: IC50 in at least one of the bromodomain cell assays
[3] = target: BRD4-BD12 (1-477) (Homo sapiens (Human), UniProt O60885); experiment: Alphascreen binding assay BRD4-BD12; conditions: BRD4(1 2) H4; read-out: Biochemical activity (IC50 μM) BRD4(1 2) H4
Method in brief: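 In this competition format, compounds displace a biotinylated tetra-acetyl H4 peptide from E. coli-expressed human BRD4 bromodomain constructs captured on nickel chelate beads. The reaction runs at pH 7.5 with 2 mM DTT and detergent for 1 h at room temperature before a 30 min bead step.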

Row | Compound | IC50 [1] [µM] | IC50 [2] [µM] | IC50 [3] [µM]
1 | Cc1noc(C)c1-c1cnc2c(-c3ccc4[nH]c(=O)[nH]c4c3)cn(CC3(F)CCCCC3)c2c1 [P-0498, 5-[6-(3,5-dimethylisoxazol-4-yl)-1-[(1-fluorocyclohexyl)methyl]pyrrolo[3,2-b]pyridin-3-yl]-1,3-dihydrobenzimidazol-2-one] | < 1 | < 10 | < 1
2 | Cc1noc(C)c1-c1cnc2c(-c3ccc4[nH]ncc4c3)cn(CC3(F)CCCCC3)c2c1 [P-0499, 4-[1-[(1-fluorocyclohexyl)methyl]-3-(1H-indazol-5-yl)pyrrolo[3,2-b]pyridin-6-yl]-3,5-dimethyl-isoxazole] | < 1 | < 10 | < 1
3 | Cc1noc(C)c1-c1cnc2c(-c3ccc(O)c(F)c3)cn(CC3(F)CCCCC3)c2c1 [P-0500, 4-[6-(3,5-dimethylisoxazol-4-yl)-1-[(1-fluorocyclohexyl)methyl]pyrrolo[3,2-b]pyridin-3-yl]-2-fluoro-phenol] | < 1 | < 10 | < 1
4 | Cc1noc(C)c1-c1cnc2c(-c3ccccc3C(=O)O)cn(CC3(F)CCCCC3)c2c1 [P-0501, 2-[6-(3,5-dimethylisoxazol-4-yl)-1-[(1-fluorocyclohexyl)methyl]pyrrolo[3,2-b]pyridin-3-yl]benzoic acid] | < 1 | < 10 | < 1
5 | Cc1noc(C)c1-c1cnc2c(-c3ccc(C(=O)O)c(O)c3)cn(CC3(F)CCCCC3)c2c1 [P-0502, 4-[6-(3,5-dimethylisoxazol-4-yl)-1-[(1-fluorocyclohexyl)methyl]pyrrolo[3,2-b]pyridin-3-yl]-2-hydroxy-benzoic acid] | < 1 | < 10 | < 1
6 | Cc1noc(C)c1-c1cnc2c(-c3ccc(OCC(=O)O)cc3)cn(CC3(F)CCCCC3)c2c1 [P-0503, 2-[4-[6-(3,5-dimethylisoxazol-4-yl)-1-[(1-fluorocyclohexyl)methyl]pyrrolo[3,2-b]pyridin-3-yl]phenoxy]acetic acid] | < 1 | < 10 | < 1
7 | COc1cc(-c2cn(CC3(F)CCCCC3)c3cc(-c4c(C)noc4C)cnc23)ccc1C(=O)O [P-0504, 4-[6-(3,5-dimethylisoxazol-4-yl)-1-[(1-fluorocyclohexyl)methyl]pyrrolo[3,2-b]pyridin-3-yl]-2-methoxy-benzoic acid] | < 1 | < 10 | < 1
8 | Cc1noc(C)c1-c1cnc2c(-c3ccc4c(c3)CNC4=O)cn(CC3(F)CCCCC3)c2c1 [P-0505, 5-[6-(3,5-dimethylisoxazol-4-yl)-1-[(1-fluorocyclohexyl)methyl]pyrrolo[3,2-b]pyridin-3-yl]isoindolin-1-one] | < 1 | < 10 | < 1
9 | Cc1cc(-c2cn(CC3(F)CCCCC3)c3cc(-c4c(C)noc4C)cnc23)ccc1C(=O)O [P-0506, 4-[6-(3,5-dimethylisoxazol-4-yl)-1-[(1-fluorocyclohexyl)methyl]pyrrolo[3,2-b]pyridin-3-yl]-2-methyl-benzoic acid] | < 1 | < 10 | < 1
10 | Cc1noc(C)c1-c1cnc2c(-c3ccc(C4(C#N)CC4)cc3)cn(CC3CCC(F)(F)CC3)c2c1 [P-0507, 1-[4-[1-[(4,4-difluorocyclohexyl)methyl]-6-(3,5-dimethylisoxazol-4-yl)pyrrolo[3,2-b]pyridin-3-yl]phenyl]cyclopropanecarbonitrile] | < 1 | < 10 | < 1
11 | COC(=O)c1ccc(-c2cn([C@H](C)c3ccccn3)c3cc(-c4c(C)noc4C)cnc23)cc1 [P-0508, methyl 4-[6-(3,5-dimethylisoxazol-4-yl)-1-[(1R)-1-(2-pyridyl)ethyl]pyrrolo[3,2-b]pyridin-3-yl]benzoate] | < 1 | < 10 | < 1
12 | COC(=O)c1ccc(-c2cn([C@@H](C)c3ccccn3)c3cc(-c4c(C)noc4C)cnc23)cc1 [P-0509, methyl 4-[6-(3,5-dimethylisoxazol-4-yl)-1-[(1S)-1-(2-pyridyl)ethyl]pyrrolo[3,2-b]pyridin-3-yl]benzoate] | < 1 | < 10 | < 1
13 | Cc1noc(C)c1-c1cnc2c(-c3cnn(CC(F)(F)F)c3)cn([C@@H](C)c3ccccn3)c2c1 [P-0512, 3,5-dimethyl-4-[1-[(1S)-1-(2-pyridyl)ethyl]-3-[1-(2,2,2-trifluoroethyl)pyrazol-4-yl]pyrrolo[3,2-b]pyridin-6-yl]isoxazole] | < 1 | < 10 | < 1
14 | Cc1noc(C)c1-c1cnc2c(-c3cnn(CC(F)(F)F)c3)cn([C@H](C)c3ccccn3)c2c1 [P-0513, 3,5-dimethyl-4-[1-[(1R)-1-(2-pyridyl)ethyl]-3-[1-(2,2,2-trifluoroethyl)pyrazol-4-yl]pyrrolo[3,2-b]pyridin-6-yl]isoxazole] | < 1 | < 10 | < 1
15 | Cc1noc(C)c1-c1cnc2c(-c3cnn(C(F)F)c3)cn([C@@H](C)c3ccccn3)c2c1 [P-0514, 4-[3-[1-(difluoromethyl)pyrazol-4-yl]-1-[(1S)-1-(2-pyridyl)ethyl]pyrrolo[3,2-b]pyridin-6-yl]-3,5-dimethyl-isoxazole] | < 1 | < 10 | < 1
16 | Cc1noc(C)c1-c1cnc2c(-c3cnn(C(F)F)c3)cn([C@H](C)c3ccccn3)c2c1 [P-0515, 4-[3-[1-(difluoromethyl)pyrazol-4-yl]-1-[(1R)-1-(2-pyridyl)ethyl]pyrrolo[3,2-b]pyridin-6-yl]-3,5-dimethyl-isoxazole] | < 1 | < 10 | < 1
17 | Cc1noc(C)c1-c1cnc2c(-c3cnn(C)c3)cn([C@@H](C)c3ccccn3)c2c1 [P-0516, 3,5-dimethyl-4-[3-(1-methylpyrazol-4-yl)-1-[(1S)-1-(2-pyridyl)ethyl]pyrrolo[3,2-b]pyridin-6-yl]isoxazole] | < 1 | < 10 | < 1
18 | CCn1cc(-c2cnc3ccn(CC4CCC(F)(F)CC4)c3c2)ccc1=O [P-0517, 5-[1-[(4,4-difluorocyclohexyl)methyl]pyrrolo[3,2-b]pyridin-6-yl]-1-ethyl-pyridin-2-one] | 1 to 10 | < 10 | 1 to 10
19 | CC(C)n1cc(-c2cnc3ccn(CC4CCC(F)(F)CC4)c3c2)ccc1=O [P-0518, 5-[1-[(4,4-difluorocyclohexyl)methyl]pyrrolo[3,2-b]pyridin-6-yl]-1-isopropyl-pyridin-2-one] | 10 to 200 | < 10 | 1 to 10
20 | Cc1noc(C)c1-c1cnc2c(-c3cnn(C)c3)cn([C@H](C)c3ccccn3)c2c1 [P-0519, 3,5-dimethyl-4-[3-(1-methylpyrazol-4-yl)-1-[(1R)-1-(2-pyridyl)ethyl]pyrrolo[3,2-b]pyridin-6-yl]isoxazole] | < 1 | < 10 | < 1
21 | Cc1noc(C)c1-c1cnc2c(-c3ccc(N)nc3)cn(CC3(F)CCCCC3)c2c1 [P-0520, 5-[6-(3,5-dimethylisoxazol-4-yl)-1-[(1-fluorocyclohexyl)methyl]pyrrolo[3,2-b]pyridin-3-yl]pyridin-2-amine] | < 1 | < 10 | < 1
22 | Cc1noc(C)c1-c1cnc2c(-c3ccc(NC(N)=O)cc3)cn(CC3(F)CCCCC3)c2c1 [P-0521, [4-[6-(3,5-dimethylisoxazol-4-yl)-1-[(1-fluorocyclohexyl)methyl]pyrrolo[3,2-b]pyridin-3-yl]phenyl]urea] | < 1 | < 10 | < 1
23 | CNC(=O)Nc1ccc(-c2cn(CC3(F)CCCCC3)c3cc(-c4c(C)noc4C)cnc23)cc1 [P-0522, 1-[4-[6-(3,5-dimethylisoxazol-4-yl)-1-[(1-fluorocyclohexyl)methyl]pyrrolo[3,2-b]pyridin-3-yl]phenyl]-3-methyl-urea] | < 1 | < 10 | < 1
24 | Cc1noc(C)c1-c1cnc2c(-c3ccc(O)cc3)cn(CC3(F)CCCCC3)c2c1 [P-0523, 4-[6-(3,5-dimethylisoxazol-4-yl)-1-[(1-fluorocyclohexyl)methyl]pyrrolo[3,2-b]pyridin-3-yl]phenol] | < 1 | < 10 | < 1
25 | Cc1noc(C)c1-c1cnc2c(-c3ccc(O)c(Cl)c3)cn(CC3(F)CCCCC3)c2c1 [P-0524] | < 1 | < 10 | < 1
26 | Cc1ccc(-c2cn(CC3(F)CCCCC3)c3cc(-c4c(C)noc4C)cnc23)cc1C(=O)O [P-0525, 5-[6-(3,5-dimethylisoxazol-4-yl)-1-[(1-fluorocyclohexyl)methyl]pyrrolo[3,2-b]pyridin-3-yl]-2-methyl-benzoic acid] | < 1 | < 10 | < 1
27 | Cc1noc(C)c1-c1cnc2c(-c3ccc(C(=O)OC(C)(C)C)cc3)cn(C(CC#N)C3CCCC3)c2c1 (stereo not drawn) [P-0526, tert-butyl 4-[1-(2-cyano-1-cyclopentyl-ethyl)-6-(3,5-dimethylisoxazol-4-yl)pyrrolo[3,2-b]pyridin-3-yl]benzoate] | < 1 | < 10 | < 1
28 | Cc1noc(C)c1-c1cnc2c(-c3ccc(C(=O)O)cc3)cn(C(CC#N)C3CCCC3)c2c1 (stereo not drawn) [P-0527, 4-[1-(2-cyano-1-cyclopentyl-ethyl)-6-(3,5-dimethylisoxazol-4-yl)pyrrolo[3,2-b]pyridin-3-yl]benzoic acid] | < 1 | < 10 | < 1
